The test system of the test is P388/ADR leukemia. In words: NCI tumour cell line growth inhibition, 48 h.

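How tested: cells in 96-well plates exposed to compound for 48 hours at five concentrations. The concentration for full growth arrest is given as TGI.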

This is an account of results in PubChem BioAssay (NCI).

In the case of `C/C=C(\C)c1cc(=O)c2c(C)cc3c(c2o1)C(=O)c1c(O)c(C2CC(C)(N(C)C)C(O)C(C)O2)cc(C2CC(N(C)C)C(O)C(C)O2)c1C3=O` (configuration not stated), the TGI was 67.9 µM.
As for `NC(C/[N+]([O-])=N/O)C(=O)O` (configuration not stated), the figure is 336 µM.
